Assay in all cases: KINOMEscan competition binding
One test deals with T1, HIPK4 (Homo sapiens, UniProt Q8NE63).
T1 sequence (Q8NE63 1-616): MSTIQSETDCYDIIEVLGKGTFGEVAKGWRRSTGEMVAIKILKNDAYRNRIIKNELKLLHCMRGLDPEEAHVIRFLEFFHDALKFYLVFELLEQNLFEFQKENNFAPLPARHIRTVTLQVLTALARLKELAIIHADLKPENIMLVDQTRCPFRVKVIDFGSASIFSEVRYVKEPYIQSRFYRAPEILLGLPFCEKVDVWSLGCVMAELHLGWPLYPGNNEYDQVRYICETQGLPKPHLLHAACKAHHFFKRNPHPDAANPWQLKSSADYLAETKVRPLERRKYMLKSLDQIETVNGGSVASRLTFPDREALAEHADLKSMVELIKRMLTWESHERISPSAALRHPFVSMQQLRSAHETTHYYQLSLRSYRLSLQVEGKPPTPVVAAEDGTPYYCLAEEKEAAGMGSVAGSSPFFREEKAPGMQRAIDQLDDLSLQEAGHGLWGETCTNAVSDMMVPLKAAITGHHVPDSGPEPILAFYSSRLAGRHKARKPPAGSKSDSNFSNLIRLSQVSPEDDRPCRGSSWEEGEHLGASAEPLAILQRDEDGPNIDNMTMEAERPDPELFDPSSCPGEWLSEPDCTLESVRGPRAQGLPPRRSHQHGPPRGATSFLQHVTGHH
Particulars: read-out: %Inh HIPK4.

A further test deals with AURKB (Homo sapiens, UniProt Q96GD4). The conditions noted are these: read-out: %Inh AURKB.
A further test concerns the target T2, MAP3K15 (Homo sapiens, UniProt Q6ZN16).
T2 sequence (Q6ZN16 1-1313): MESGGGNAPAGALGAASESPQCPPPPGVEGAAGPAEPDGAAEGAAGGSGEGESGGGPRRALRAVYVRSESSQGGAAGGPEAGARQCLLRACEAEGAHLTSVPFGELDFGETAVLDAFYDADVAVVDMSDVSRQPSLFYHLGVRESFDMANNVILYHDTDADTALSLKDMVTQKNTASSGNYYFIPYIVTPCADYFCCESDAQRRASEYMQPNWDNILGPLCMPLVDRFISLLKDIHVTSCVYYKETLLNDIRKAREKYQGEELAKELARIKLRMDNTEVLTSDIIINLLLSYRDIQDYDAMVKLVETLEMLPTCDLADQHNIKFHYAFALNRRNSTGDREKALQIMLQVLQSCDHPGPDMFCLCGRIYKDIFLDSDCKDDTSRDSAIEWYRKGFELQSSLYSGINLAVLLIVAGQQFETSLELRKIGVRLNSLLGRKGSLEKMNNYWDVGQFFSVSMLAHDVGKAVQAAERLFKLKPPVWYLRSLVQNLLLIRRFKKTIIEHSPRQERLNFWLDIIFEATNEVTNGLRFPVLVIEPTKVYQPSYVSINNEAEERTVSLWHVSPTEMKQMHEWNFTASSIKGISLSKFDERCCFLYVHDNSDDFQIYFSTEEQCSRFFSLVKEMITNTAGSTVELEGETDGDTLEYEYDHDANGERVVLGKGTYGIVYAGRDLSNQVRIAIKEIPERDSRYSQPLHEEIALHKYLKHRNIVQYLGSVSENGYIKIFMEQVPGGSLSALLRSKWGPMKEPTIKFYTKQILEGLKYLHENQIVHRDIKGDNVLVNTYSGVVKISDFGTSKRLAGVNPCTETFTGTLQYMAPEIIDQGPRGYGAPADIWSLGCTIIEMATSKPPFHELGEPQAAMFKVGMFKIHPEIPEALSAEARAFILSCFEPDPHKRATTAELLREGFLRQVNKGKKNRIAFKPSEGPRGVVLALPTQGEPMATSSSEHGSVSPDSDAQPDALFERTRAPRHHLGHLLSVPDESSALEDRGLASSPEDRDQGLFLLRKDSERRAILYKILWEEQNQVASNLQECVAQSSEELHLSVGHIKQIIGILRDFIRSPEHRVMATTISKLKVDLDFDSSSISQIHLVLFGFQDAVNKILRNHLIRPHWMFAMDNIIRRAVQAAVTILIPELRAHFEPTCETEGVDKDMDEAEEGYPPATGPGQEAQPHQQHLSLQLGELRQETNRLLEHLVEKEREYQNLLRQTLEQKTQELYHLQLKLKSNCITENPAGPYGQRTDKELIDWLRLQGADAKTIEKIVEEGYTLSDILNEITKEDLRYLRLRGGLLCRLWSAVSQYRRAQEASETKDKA
The conditions noted are these: read-out: %Inh MAP3K15.

The next test deals with ABL2 (Homo sapiens, UniProt P42684). Particulars: read-out: %Inh ABL2.
The next test has as its target T3, DRAK1 (Homo sapiens, UniProt Q9UEE5).
T3 sequence (Q9UEE5 1-414): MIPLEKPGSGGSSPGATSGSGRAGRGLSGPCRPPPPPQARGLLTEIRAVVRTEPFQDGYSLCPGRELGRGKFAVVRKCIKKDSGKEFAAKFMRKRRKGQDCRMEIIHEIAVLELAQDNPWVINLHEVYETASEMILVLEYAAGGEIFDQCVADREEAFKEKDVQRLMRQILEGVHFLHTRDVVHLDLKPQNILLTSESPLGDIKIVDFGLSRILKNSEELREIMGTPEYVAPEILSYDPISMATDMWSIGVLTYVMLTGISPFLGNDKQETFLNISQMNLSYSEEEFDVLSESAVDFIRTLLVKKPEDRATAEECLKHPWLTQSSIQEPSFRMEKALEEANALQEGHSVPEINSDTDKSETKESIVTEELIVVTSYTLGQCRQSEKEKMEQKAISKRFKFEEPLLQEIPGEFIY
Particulars: read-out: %Inh DRAK1.

ABL2, sequence (P42684 whole entry): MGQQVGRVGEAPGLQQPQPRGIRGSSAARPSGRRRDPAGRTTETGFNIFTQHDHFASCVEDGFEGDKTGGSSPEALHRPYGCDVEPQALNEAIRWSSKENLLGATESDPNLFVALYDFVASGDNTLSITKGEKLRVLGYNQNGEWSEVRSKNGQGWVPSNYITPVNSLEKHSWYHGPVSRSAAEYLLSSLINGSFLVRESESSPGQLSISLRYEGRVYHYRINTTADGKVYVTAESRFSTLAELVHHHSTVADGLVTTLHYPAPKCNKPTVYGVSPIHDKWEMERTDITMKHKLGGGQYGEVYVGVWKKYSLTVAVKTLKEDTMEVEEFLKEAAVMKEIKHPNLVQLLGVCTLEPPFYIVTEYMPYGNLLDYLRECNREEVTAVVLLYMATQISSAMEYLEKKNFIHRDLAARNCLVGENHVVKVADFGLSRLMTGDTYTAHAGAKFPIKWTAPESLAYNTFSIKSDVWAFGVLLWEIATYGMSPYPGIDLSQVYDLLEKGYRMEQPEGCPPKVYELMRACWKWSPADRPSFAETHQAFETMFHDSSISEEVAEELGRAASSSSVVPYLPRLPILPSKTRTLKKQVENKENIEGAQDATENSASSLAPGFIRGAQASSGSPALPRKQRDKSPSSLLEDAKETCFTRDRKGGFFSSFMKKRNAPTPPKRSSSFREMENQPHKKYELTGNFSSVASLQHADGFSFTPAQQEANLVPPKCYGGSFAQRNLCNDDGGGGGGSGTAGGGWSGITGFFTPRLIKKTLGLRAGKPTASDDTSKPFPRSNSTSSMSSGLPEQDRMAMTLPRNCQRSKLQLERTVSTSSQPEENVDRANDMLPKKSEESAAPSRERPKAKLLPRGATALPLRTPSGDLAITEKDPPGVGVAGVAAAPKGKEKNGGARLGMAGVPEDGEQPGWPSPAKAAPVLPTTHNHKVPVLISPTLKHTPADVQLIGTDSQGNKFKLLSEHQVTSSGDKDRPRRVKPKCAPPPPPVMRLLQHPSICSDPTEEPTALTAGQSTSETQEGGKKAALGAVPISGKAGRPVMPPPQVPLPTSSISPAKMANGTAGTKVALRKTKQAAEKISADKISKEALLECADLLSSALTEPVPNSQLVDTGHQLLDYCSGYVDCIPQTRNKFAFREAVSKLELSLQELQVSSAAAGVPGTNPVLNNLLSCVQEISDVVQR
AURKB, sequence (Q96GD4 whole entry): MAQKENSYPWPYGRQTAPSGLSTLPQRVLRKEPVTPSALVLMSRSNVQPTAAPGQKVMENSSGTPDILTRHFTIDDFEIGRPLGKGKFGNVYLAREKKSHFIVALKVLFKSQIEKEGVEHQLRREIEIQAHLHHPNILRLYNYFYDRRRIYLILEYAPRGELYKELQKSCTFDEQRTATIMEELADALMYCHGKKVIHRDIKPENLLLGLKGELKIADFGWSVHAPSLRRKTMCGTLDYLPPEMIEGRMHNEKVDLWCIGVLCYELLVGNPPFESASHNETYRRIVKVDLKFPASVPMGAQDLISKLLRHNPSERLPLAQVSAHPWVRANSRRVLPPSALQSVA

For `O=c1cc(N2CCOCC2)nc2n(Cc3cccc(Cl)c3Cl)c(C3CC3)nn12` [UNC10225469A], the inhibition at 1 µM is 0% at HIPK4; 4% on AURKB; 0% at MAP3K15; 5% at ABL2; 11% on DRAK1.

Take `COc1cccc(OC)c1C(=O)Nc1cccc(-c2nn3ccccc3c2-c2ccnc(Nc3cccc(F)c3)n2)c1` [UNC10225310A]: the inhibition at 1 µM amounted to 84% on HIPK4; 0% on AURKB; 0% at MAP3K15; 100% at ABL2; 12% at DRAK1.

For `CS(=O)(=O)Cc1ccc(Nc2nccc(-c3c(-c4cccc(NC(=O)C5CCCCC5)c4)nn4ncccc34)n2)cc1` [UNC10225159A], the inhibition at 1 µM turned out to be 0% on HIPK4; 15% on AURKB; 38% on MAP3K15; 5% on ABL2; 0% on DRAK1.

Take `Cc1ccc(NC(=O)Nc2cccc(C(F)(F)F)c2)cc1` [UNC10225187A]: the inhibition at 1 µM at HIPK4 came out at 0%; at AURKB, 0%; on MAP3K15 it was 0%; at ABL2 it was 3%; on DRAK1, 15%.

For `Cn1cc(-c2cnc(N)c3c(-c4ccc5c(c4)CCN5C(=O)Cc4ccccc4)csc23)cn1` [UNC10225012A], the inhibition at 1 µM at HIPK4 amounted to 0%; at AURKB, 97.8%; on MAP3K15 it was 35%; at ABL2, 81%; on DRAK1 it was 0%.

The values are drawn from paper PMC5540273, “Progress towards a public chemogenomic set for protein kinases and a call for contributions” (PLoS ONE, 2017).
